Patent US4632828A, “Pharmaceutical composition” (priority 1984, dated 1986)

Tests used:
[1] = Differential Scanning Calorimetry of MAP/swellable polymer systems; format: physicochemical; conditions: DSC; for % Residual of Original Heat of Fusion: relative to pure crystalline MAP
Excerpt: Alternatively, the grinding of the MAP-swellable polymer mixture can be stopped at any time the original crystalline form of MAP has been transformed into another, more energetic form.

[2] = Solubility (saturation concentration) of MAP/swellable polymer systems; format: physicochemical; conditions: pH 5.5 phosphate buffer, 37° C.
Description: The flasks were placed in a shaking thermostated apparatus and aliquots of sample solutions were taken by filtering through a Millipore membrane. The concentration of MAP in the filtered aliquot was determined both by spectrophotometry (SP8-100, Pye Unicam), after dilution with methanol, and by HPLC (column: Spherisorb S30DS2, Phase Sep.; mobile phase: acetonitrile/water 70/30 v/v; flow rate: 1 ml/min; U.V. detection, λ=242 nm), after dilution with acetonitrile.

Row | Heat of Fusion [1] | Melting Point [1] | % Residual of Original Heat of Fusion [1] | Solubility ([2]; 5 min) | Solubility ([2]; 15 min) | Solubility ([2]; 1 hr) | Solubility ([2]; 6 hrs) | Melting Point ([1]; listed as pure MAP) | Structure (SMILES)
1 | 82.798 J/g | 205.3 °C | 94.1% | – | – | – | – | – | CC(=O)O[C@]1(C(C)=O)CC[C@H]2[C@@H]3C[C@H](C)C4=CC(=O)CC[C@]4(C)[C@H]3CC[C@@]21C [Micronized pure MAP, 6α-methyl, 17α-hydroxy-progesterone acetate]
2 | 88.003 J/g | 205-206 °C | 100% | < 0.04 µg/mL | 0.32 µg/mL | 0.68 µg/mL | 1.00 µg/mL | 205.6 °C | CC(=O)O[C@]1(C(C)=O)CC[C@H]2[C@@H]3C[C@H](C)C4=CC(=O)CC[C@]4(C)[C@H]3CC[C@@]21C [Pure crystalline MAP, 6α-methyl, 17α-hydroxy-progesterone acetate]
